target: human GPR17 short isoform (Homo sapiens, UniProt Q13304); experiment: hGPR17 cAMP assay (GPR17 cAMP Assay Protocol, antagonist mode); type: cell-based; settings: CHO-K1 cells stably expressing untagged human GPR17 short isoform; EC80 of agonist MDL29,951; forskolin 15 μM; 30 min, room temperature; TR-FRET cAMP readout
Method: GPR17 cAMP Assay Protocol:
CHO-K1 cells stably expressing vector containing untagged human GPR17 short isoform (Roche) were cultured at 37° C./5% CO2 in DMEM (Dulbecco's Modified Eagle Medium):F-12 (1:1) supplemented with 10% foetal bovine serum and 400 μg/ml Geneticin.
Changes in intracellular cyclic adenosine monophosphate (cAMP) levels were quantified using the Nano-TRF Detection Assay kit (Roche Diagnostics, Cat. No. 05214386001). This assay allows for direct cAMP quantification in a homogeneous solution. cAMP is detected based on time-resolved fluorescence energy transfer (TR-FRET) and competitive binding of ruthenylated cAMP and endogenous cAMP to an anti-cAMP monoclonal antibody labeled with AlexaFluor-700. The Ruthenium complex serves as the FRET donor and transfers energy to AlexaFluor-700. The FRET signal is inversely proportional to the cAMP concentration.
CHO-GPR17S cells were detached with Accutase and resuspended in assay buffer consisting of Hank's Balanced Salt Solution (HBSS), 10 mM HEPES (4-(2-hydroxyethyl) piperazine-1-ethanesulfonic acid solution) and 0.1% bovine serum albumin (pH 7.4). The cells were seeded in black 384-well plates (Corning) at a density of 10′000 cells/20 μl assay buffer until the addition of compounds.
Test antagonist compounds were serially diluted in dimethyl sulfoxide (DMSO) and spotted in 384-well plates. The compounds were then diluted in BSS buffer supplemented with an EC80 concentration of MDL29,951 (3-(2-Carboxy-4,6-dichloroindol-3-yl)propionic acid) (GPR17 agonist) plus 3-Isobutyl-1-methylxanthine (IBMX) (0.5 mM final concentration) and added to the cells at room temperature. Forskolin (15 μM final concentration) was added 5 minutes after the test compounds and the cells were incubated at room temperature for 30 minutes. The assay was stopped by adding cAMP detection mix (containing detergents for cell lysis) for 90 minutes at room temperature.
Cellular cAMP was measured using a Paradigm reader (Molecular Devices). The raw data was used to calculate the FRET signal based on the assay's P-factor as per cAMP kit instructions. The data was normalized to the maximal activity of a reference antagonist and dose response curves were fitted to the percent activity of the test compounds using a sigmoidal dose response model (Genedata Screener).
Results in the hGPR17 cAMP assay are provided for compounds of formula I in Table 1

Chain of human GPR17 short isoform (Q13304 29-367): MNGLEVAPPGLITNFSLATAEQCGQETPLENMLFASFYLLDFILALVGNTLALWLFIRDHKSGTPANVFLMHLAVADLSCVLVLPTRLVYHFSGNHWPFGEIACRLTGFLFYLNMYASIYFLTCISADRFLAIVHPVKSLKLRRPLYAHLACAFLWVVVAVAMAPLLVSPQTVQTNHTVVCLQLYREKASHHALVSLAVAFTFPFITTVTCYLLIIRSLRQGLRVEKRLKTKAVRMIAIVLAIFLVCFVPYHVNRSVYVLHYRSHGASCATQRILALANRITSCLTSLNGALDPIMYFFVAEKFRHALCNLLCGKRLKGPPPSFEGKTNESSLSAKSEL

Structure (SMILES)	IC50 [nM]
N#CCc1cc(F)c(NS(=O)(=O)c2cnc(O)c3c(Cl)cccc23)cc1F [Example 20, 8-chloro-N-[4-(cyanomethyl)-2,5-difluoro-phenyl]-1-hydroxy-isoquinoline-4-sulfonamide]	327
COc1nc(C2COC2)c(F)cc1NS(=O)(=O)c1cccc2nc(Cl)ccc12 [Example 7, 2-chloro-N-[5-fluoro-2-methoxy-6-(oxetan-3-yl)-3-pyridyl]quinoline-5-sulfonamide]	431
COc1nc(NS(=O)(=O)c2cncc3cc(Cl)ccc23)c(F)cc1OCC(F)F [Example 14, 7-chloro-N-[5-(2,2-difluoroethoxy)-3-fluoro-6-methoxy-2-pyridyl]isoquinoline-4-sulfonamide]	415
CNc1ncc(S(=O)(=O)Nc2cc(F)c(OCC(F)F)nc2OC)c2ccc(Cl)cc12 [Example 43, 7-chloro-N-[6-(2,2-difluoroethoxy)-5-fluoro-2-methoxy-3-pyridyl]-1-(methylamino)isoquinoline-4-sulfonamide]	35
Cc1ccc(S(=O)(=O)Nc2cc(F)c(CC#N)cc2F)c2cccnc12 [Example 47, N-[4-(cyanomethyl)-2,5-difluoro-phenyl]-8-methyl-quinoline-5-sulfonamide]	933
O=S(=O)(Nc1cc(F)c(OC(F)F)nc1OC(F)F)c1cccc2nc(Cl)ccc12 [Example 11, N-[2,6-bis(difluoromethoxy)-5-fluoro-3-pyridyl]-2-chloro-quinoline-5-sulfonamide]	111
COc1nc(OCC(F)F)c(F)cc1NS(=O)(=O)c1c[nH]c(=O)c2cc(Cl)ccc12 [Example 26]	5
COc1nc(OCC(F)F)c(F)cc1NS(=O)(=O)c1c[nH]c(=O)c2nc(Cl)ccc12 [Example 29, 2-chloro-N-[6-(2,2-difluoroethoxy)-5-fluoro-2-methoxy-3-pyridyl]-8-keto-7H-1,7-naphthyridine-5-sulfonamide]	30
N#CCc1cc(F)c(NS(=O)(=O)c2c[nH]c(=O)c3c(Cl)c(Cl)ccc23)cc1F [Example 38, 7,8-dichloro-N-[4-(cyanomethyl)-2,5-difluoro-phenyl]-1-keto-2H-isoquinoline-4-sulfonamide]	182
COc1nc(OCC(F)F)c(F)cc1NS(=O)(=O)c1cccc2ccccc12 [Example 2, N-[6-(2,2-difluoroethoxy)-5-fluoro-2-methoxy-3-pyridyl]naphthalene-1-sulfonamide]	85
COc1nc(OCC(F)F)c(F)cc1NS(=O)(=O)c1cccc2cc(Cl)ccc12 [Example 34, 6-chloro-N-[6-(2,2-difluoroethoxy)-5-fluoro-2-methoxy-3-pyridyl]naphthalene-1-sulfonamide]	48
N#CCc1cc(F)c(NS(=O)(=O)c2ccnc3cc(Cl)ccc23)cc1F [Example 53, 7-chloro-N-[4-(cyanomethyl)-2,5-difluoro-phenyl]quinoline-4-sulfonamide]	976
COc1nc(OCC(F)F)c(F)cc1NS(=O)(=O)c1cnc(N(C)C)c2cc(Cl)ccc12 [Example 41, 7-chloro-N-[6-(2,2-difluoroethoxy)-5-fluoro-2-methoxy-3-pyridyl]-1-(dimethylamino)isoquinoline-4-sulfonamide]	61
N#CCc1cc(F)c(NS(=O)(=O)c2c[nH]c(=O)c3nc(Cl)ccc23)cc1F [Example 28, 2-chloro-N-[4-(cyanomethyl)-2,5-difluoro-phenyl]-8-oxo-7H-1,7-naphthyridine-5-sulfonamide]	955
COc1nc(OC(F)F)c(F)cc1NS(=O)(=O)c1c[nH]c(=O)c2cc(Cl)ccc12 [Example 23, 7-chloro-N-[6-(difluoromethoxy)-5-fluoro-2-methoxy-3-pyridyl]-1-keto-2H-isoquinoline-4-sulfonamide]	19
COc1nc(OCC(F)F)c(F)cc1NS(=O)(=O)c1cccc2c(N(C)C)cccc12 [Example 40, N-[6-(2,2-difluoroethoxy)-5-fluoro-2-methoxy-3-pyridyl]-5-(dimethylamino)naphthalene-1-sulfonamide]	13
COc1nc(OCC(F)F)c(F)cc1NS(=O)(=O)c1cccc2ccc(Cl)cc12 [Example 19, 7-chloro-N-[6-(2,2-difluoroethoxy)-5-fluoro-2-methoxy-3-pyridyl]naphthalene-1-sulfonamide]	89
COc1nc(OCC(F)F)c(F)cc1NS(=O)(=O)c1c[nH]c(=O)c2c(Cl)c(Cl)ccc12 [Example 39, 7,8-dichloro-N-[6-(2,2-difluoroethoxy)-5-fluoro-2-methoxy-3-pyridyl]-1-keto-2H-isoquinoline-4-sulfonamide]	7
COc1nc(NS(=O)(=O)c2c[nH]c(=O)c3cc(Cl)ccc23)nc(OC)c1CC(F)F [Example 24, 7-chloro-N-[5-(2,2-difluoroethyl)-4,6-dimethoxy-pyrimidin-2-yl]-1-keto-2H-isoquinoline-4-sulfonamide]	278
N#CCc1cc(F)c(NS(=O)(=O)c2cccc3nc(Cl)ccc23)cc1F [Example 3, 2-chloro-N-[4-(cyanomethyl)-2,5-difluoro-phenyl]quinoline-5-sulfonamide]	217
COc1nc(OCC(F)F)c(F)cc1NS(=O)(=O)c1cc(=O)[nH]c2cc(Cl)ccc12 [Example 30, 7-chloro-N-[6-(2,2-difluoroethoxy)-5-fluoro-2-methoxy-3-pyridyl]-2-keto-1H-quinoline-4-sulfonamide]	35
